pIC50: −log10 of the molar value.

Drawing on patent US20120238549A1, “Nuclear Hormone Receptor Modulators” (ABBOTT LABORATORIES, priority 2011, published 2012), this text covers IC50 for 17 compounds.

The target of the assay is T1, Glucocorticoid Receptor (GR) (Homo sapiens, UniProt P04150).
T1 construct: purchased Invitrogen P2893
T1 sequence (P04150 1-777): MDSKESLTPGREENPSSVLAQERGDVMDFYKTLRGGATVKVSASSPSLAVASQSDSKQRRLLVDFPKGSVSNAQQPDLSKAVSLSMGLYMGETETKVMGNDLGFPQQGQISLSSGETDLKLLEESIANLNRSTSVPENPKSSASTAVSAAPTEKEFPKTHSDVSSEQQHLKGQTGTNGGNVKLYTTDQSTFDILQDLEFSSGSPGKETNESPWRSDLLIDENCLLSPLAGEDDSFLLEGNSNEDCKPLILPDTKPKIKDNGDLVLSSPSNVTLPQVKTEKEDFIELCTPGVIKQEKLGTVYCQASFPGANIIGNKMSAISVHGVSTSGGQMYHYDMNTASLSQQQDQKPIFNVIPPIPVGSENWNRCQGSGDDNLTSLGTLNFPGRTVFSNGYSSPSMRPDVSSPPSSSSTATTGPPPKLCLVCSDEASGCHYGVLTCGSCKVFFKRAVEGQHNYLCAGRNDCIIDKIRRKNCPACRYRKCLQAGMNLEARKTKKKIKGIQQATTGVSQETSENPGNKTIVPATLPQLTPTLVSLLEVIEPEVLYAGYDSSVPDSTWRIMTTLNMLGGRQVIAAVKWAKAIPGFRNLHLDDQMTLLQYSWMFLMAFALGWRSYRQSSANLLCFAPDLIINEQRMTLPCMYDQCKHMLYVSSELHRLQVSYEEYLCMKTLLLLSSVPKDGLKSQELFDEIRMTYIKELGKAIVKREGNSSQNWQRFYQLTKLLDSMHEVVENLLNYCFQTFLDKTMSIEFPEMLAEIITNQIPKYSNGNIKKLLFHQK
The experiment in a line: GR Florescence Polarization Assay (PolarScreen Glucocorticoid Receptor Competitor Assay, Red). Conditions: Fluorescense polarization binding ranges; competition with fluorescent glucocorticoid, incubated overnight at 4° C. The method, then: GR Florescence Polarization Assay Florescence polarization assays were carried out using the PolarScreen™ Glucocorticoid Receptor Competitor Assay, Red from Invitrogen (P2893). The assay buffer was prepared according to the manufacturer's protocol and used to dilute the fluorescent glucocorticoid and GR. Compounds were prepared and serial diluted 1:4 in DMSO. Compound, fluorescent glucocorticoid and GR were added in a final volume of 20 μL and incubated overnight at 4° C. Fluorescent polarization was measured on the Perkinelmer Envision®.
In the case of `CC[C@@]1(O)CC[C@@]2(Cc3ccccc3)c3cc(C(=O)Nc4cccnc4C)cn3CCC[C@H]2C1` (racemic) [Example 144, (7aS,9R,11aS)-11a-Benzyl-9-ethyl-9-hydroxy-N-(2-methylpyridin-3-yl)-6,7,7a,8,9,10,11,11a-octahydro-5H-benzo[c]pyrrolo[1,2-a]azepine-2-carboxamide; compound with (7aR,9S,11aR)-11a-benzyl-9-ethyl-9-hydroxy-N-(2-methylpyridin-3-yl)-6,7,7a,8,9,10,11,11a-octahydro-5H-benzo[c]pyrrolo[1,2-a]azepine-2-carboxamide], the pIC50 was 5.00 to 6.00.
`CC[C@@]1(O)CC[C@@]2(CC)c3ccc(C(=O)Nc4cccnc4C)cc3COC[C@H]2C1` [Example 140] had a pIC50 of 6.00 to 7.00.
In the case of `CCC[C@@]1(O)CC[C@@]2(CC(F)(F)F)c3ccc(C(=O)Nc4cccnc4C)cc3CCC[C@H]2C1` (racemic) [Example 52] it was more than 7.00; in that of `Cc1ncccc1NC(=O)c1ccc2c(c1)C(=O)CC[C@@H]1C[C@@](O)(C(F)(F)F)CC[C@@]21Cc1ccccc1` [Example 118, (7aR,9R,11aS)-11a-Benzyl-9-hydroxy-5-oxo-9-trifluoromethyl-6,7,7a,8,9,10,11,11a-octahydro-5H-dibenzo[a,c]cycloheptene-3-carboxylic acid (2-methyl-pyridin-3-yl)-amide], more than 7.00.
In the case of `CC[C@@]12CC[C@](O)(CCC(F)(F)F)C[C@@H]1CCCc1cc(C(=O)Nc3cccnc3C)ccc12.CC[C@]12CC[C@@](O)(CCC(F)(F)F)C[C@H]1CCCc1cc(C(=O)Nc3cccnc3C)ccc12` [Example 133, (7aS,9S,11aR)-11a-Ethyl-9-hydroxy-9-(3,3,3-trifluoro-propyl)-6,7,7a,8,9,10,11,11a-octahydro-5H-dibenzo[a,c]cycloheptene-3-carboxylic acid (2-methyl-pyridin-3-yl)-amide; compound with (7aR,9R,11aS)-11a-ethyl-9-hydroxy-9-(3,3,3-trifluoro-propyl)-6,7,7a,8,9,10,11,11a-octahydro-5H-dibenzo[a,c]cycloheptene-3-carboxylic acid (2-methyl-pyridin-3-yl)-amide] it was more than 7.00; in that of `CC[C@@]12CC[C@](O)(c3ccccc3)C[C@@H]1CCCc1cc(C(=O)Nc3cccnc3C)ccc12` (single isomer, unassigned) [Example 122], more than 7.00; in that of `CCC[C@@]1(O)CC[C@@]2(CC3CC3)c3ccc(C(=O)Nc4cccnc4C)cc3CCC[C@H]2C1` (racemic) [Example 150, (7aR,9R,11aS)-11a-Cyclopropylmethyl-9-hydroxy-9-propyl-6,7,7a,8,9,10,11,11a-octahydro-5H-dibenzo[a,c]cycloheptene-3-carboxylic acid (2-methyl-pyridin-3-yl)-amide; compound with (7aS,9S,11aR)-11a-cyclopropylmethyl-9-hydroxy-9-propyl-6,7,7a,8,9,10,11,11a-octahydro-5H-dibenzo[a,c]cycloheptene-3-carboxylic acid (2-methyl-pyridin-3-yl)-amide], more than 7.00.
For `Cc1ncccc1NC(=O)c1ccc2c(c1)CCC[C@@H]1C[C@](C)(O)CC[C@@]21Cc1ccccc1.Cc1ncccc1NC(=O)c1ccc2c(c1)CCC[C@H]1C[C@@](C)(O)CC[C@]21Cc1ccccc1` [Example 9, (7aR,9R,11aS)-11a-Benzyl-9-hydroxy-9-methyl-6,7,7a,8,9,10,11,11a-octahydro-5H-dibenzo[a,c]cycloheptene-3-carboxylic acid (2-methyl-pyridin-3-yl)-amide; compound with (7aS,9S,11aR)-11a-benzyl-9-hydroxy-9-methyl-6,7,7a,8,9,10,11,11a-octahydro-5H-dibenzo[a,c]cycloheptene-3-carboxylic acid (2-methyl-pyridin-3-yl)-amide], the pIC50 is more than 7.00.
The same measure for `O=C1CC[C@@]2(Cc3ccccc3)c3ccc(O)cc3CCC[C@@H]2C1.O=C1CC[C@]2(Cc3ccccc3)c3ccc(O)cc3CCC[C@H]2C1` [Example 5, (4aR,11bS)-11b-benzyl-9-hydroxy-1,2,4,4a,5,6,7,11b-octahydro-dibenzo[a,c]cyclohepten-3-one; compound with (4aS,11bR)-11b-benzyl-9-hydroxy-1,2,4,4a,5,6,7,11b-octahydro-dibenzo[a,c]cyclohepten-3-one]: 6.00 to 7.00; for `CC[C@@]1(O)CC[C@@]2(Cc3ccccc3)c3c(cnn3C)CCC[C@H]2C1.CC[C@]1(O)CC[C@]2(Cc3ccccc3)c3c(cnn3C)CCC[C@@H]2C1` [Example 38, (6aS,8R,10aS)-10a-Benzyl-8-ethyl-1-methyl-1,4,5,6,6a,7,8,9,10,10a-decahydro-1,2-diaza-benzo[e]azulen-8-ol; compound with (6aR,8S,10aR)-10a-benzyl-8-ethyl-1-methyl-1,4,5,6,6a,7,8,9,10,10a-decahydro-1,2-diaza-benzo[e]azulen-8-ol]: 5.00 to 6.00.
The same measure for `CCC[C@@]1(O)CC[C@@]2(CC)c3ccc(-c4nc5ccccc5[nH]4)cc3CCC[C@H]2C1` (single isomer, unassigned) [Example 147]: 5.00 to 6.00; for `CC[C@@]12CC[C@@](C)(O)C[C@@H]1CCCc1cc(C(=O)Nc3cccnc3C)ccc12` (single isomer, unassigned) [Example 60]: more than 7.00.
Regarding “(3R,4aS,11bS)-11b-Benzyl-3-methyl-2,3,4,4a,5,6,7,11b-octahydro-1H-dibenzo[a,c]cycloheptene-3,9-diol; compound with (3S,4aR,11bR)-11b-benzyl-3-methyl-2,3,4,4a,5,6,7,11b-octahydro-1H-dibenzo[a,c]cycloheptene-3,9-diol [Example 6]”, the pIC50 was more than 7.00.
In the case of `Cc1ncccc1NC(=O)c1ccc2c(c1)CCC[C@@H]1C[C@@](O)(C(F)(F)F)CC[C@@]21Cc1ccccc1` (racemic) [Example 3, (7aR,9R,11aS)-11a-Benzyl-9-hydroxy-9-trifluoromethyl-6,7,7a,8,9,10,11,11a-octahydro-5H-dibenzo[a,c]cycloheptene-3-carboxylic acid (2-methyl-pyridin-3-yl)-amide; compound with (7aS,9S,11aR)-11a-benzyl-9-hydroxy-9-trifluoromethyl-6,7,7a,8,9,10,11,11a-octahydro-5H-dibenzo[a,c]cycloheptene-3-carboxylic acid (2-methyl-pyridin-3-yl)-amide] it was more than 7.00; in that of `CC[C@@]1(O)CC[C@@]2(Cc3ccccc3)c3ccc(C(=O)Nc4cccnc4C)cc3C(=O)OC[C@H]2C1` [Example 112, (7aS,9R,11aS)-11a-Benzyl-9-ethyl-9-hydroxy-N-(2-methylpyridin-3-yl)-5-oxo-5,7,7a,8,9,10,11,11a-octahydrodibenzo[c,e]oxepine-3-carboxamide], 6.00 to 7.00.
The compound `Cc1ncccc1NC(=O)c1ccc2c(c1)NC(=O)C[C@@H]1C[C@@](O)(C(F)(F)F)CC[C@@]21Cc1ccccc1` [Example 20, (7aS,9R,11aS)-11a-Benzyl-9-hydroxy-N-(2-methylpyridin-3-yl)-6-oxo-9-(trifluoromethyl)-6,7,7a,8,9,10,11,11a-octahydro-5H-dibenzo[b,d]azepine-3-carboxamide] showed a pIC50 of 6.00 to 7.00.
In the case of `CCC[C@@]1(O)CC[C@@]2(CC)c3ccc(C(=O)Nc4cccnc4C)cc3COC[C@H]2C1` (single isomer, unassigned) [Example 138] it was more than 7.00.
